Test results as given in patent US5084441A, “Acetylated low density lipoproteins: a delivery system to phagocytic cells for stimulating immunologic response and host resistance” (priority 1988, dated 1992).

How the values were obtained:
[1] = test system: thioglycolate-elicited macrophages, thymocytes and X63-Ag8.653 myeloma cells; assay: Cell specificity of [125I]acetyl-LDL binding; design: species or system mouse
Method: Thiglycolate-elicited macrophages, thymocytes and X63-Ag8.653 myeloma cells were incubated with [^125 I] acetyl-LDL at 4 degrees centigrade in six cell tissue culture plates at […]. After 2 hours, the cells were washed five times, then lysed in 0.05% Triton X-100 and the amount of [^125 I] acetyl-LDL bound was determined.

macrophages = details: reference 41; cited from earlier work
[2] = test system: P815 mastocytoma target cells; assay: Macrophage-mediated cytotoxicity ([3H]thymidine release) after treating thioglycolate-elicited macrophages
Method: Macrophage-mediated cytotoxicity: Cytotoxicity was determined using a [3H] thymidine release assay. Thioglycolate-elicited macrophages were plated in 96-well flat-bottom tissue culture plates (Costar, Cambridge, Mass.) at 4×10^5 and 1×10^4 macrophage per well. […] After 24 hours, the plates were washed three times and [3H] thymidine labelled P815 tumor target cells (1×10^4) were added to each well. The total assay volume was 250 μl in DMEM with 10% FCS and the plates were incubated an additional 24 hours. After incubation, the microplates were centrifuged for 2 minutes at 250×g and a 125 μl aliquot of supernatant was removed and counted by liquid […]. Total incorporation of radioactivity was determined by adding 1×10^4 cells to 2 ml of Beckman Redissolve scintillation cocktail.
The percent specific release was calculated. [formula]
All samples were plated in triplicate and the data presented as the mean ±S.D. of triplicates.

[3] = test system: thioglycolate-elicited macrophages; assay: Fluorescent binding and uptake of acetyl-LDL:MTP-PE-DiI by macrophages; format: cell-based, mouse; details: 30-fold excess of competitor; 30 μg acetyl-LDL:MTP-PE-DiI; 37°
Method: The binding and uptake of acetyl-LDL:MTP-PE-DiI was carried out at 37 degrees centigrade and the fluorescence intensity of cell-associated DiI recorded. The μg acetyl-LDL:MTP-PE-DiI bound was determined by knowing the quantity of DiI associated with the complex (1.34±0.76 nmol DiI/mg acetyl-LDL protein). The data points represent an average of three separate experiments.
Insert: Uptake of 30 μg of acetyl-LDL:MTP-PE-DiI and in the presence of a 30-fold excess of acetyl-LDL (a) a 30-fold excess of LDL (b) or a 30-fold excess of liposomes (c).

[4] = test system: B16F10 melanoma target cells; assay: Macrophage-mediated cytostasis ([3H]thymidine incorporation) after treating thioglycolate-elicited macrophages; details: for % Cytostasis: effector:target 10:1
Method: ^(2) Thioglycolate-elicited macrophages were treated with different
concentrations of the complex for 24 hours, unbound complex was washed
away and B16F10 melanoma cells were added. After 24 hours, the cultures
were pulsed with [3H]thymidine and harvested after 18 hours
(effector:target ratio, 10:1).
Macrophage-mediated Cytostasis: Cytostatic activity was determined using a (^3 H) Thymidine (New England Nuclear Corp) incorporation technique (64). […] After 24 hours, the cells were washed twice with warm DMEM and cultured in DMEM (10% FCS), with 1×10^5 B16F10 melanoma target cells for 24 hours. The cells were then pulsed for 24 hours with 1 uCi of (^3 H) thymidine. Cells were harvested using a MASH cell harvester and assayed with a liquid scintillation counter. The results were expressed as a percent inhibition of (^3 H) thymidine incorporation into the B16F10 target cells (such as % cytostasis). [formula]

| Substance | binding to myeloma cell line (B-lymphocyte) and thymocytes (T-lymphocytes) [1] | rate of uptake and degradation by macrophages relative to LDL (macrophages) | Percent Cytotoxicity ([2]; effector to target cell ratio 1:1, same amounts per well) | Percent Cytotoxicity ([2]; effector to target cell ratio 5:1, same amounts per well) | Percent Cytotoxicity ([2]; effector to target cell ratio 10:1, same amounts per well) | Percent Cytotoxicity ([2]; effector to target cell ratio 20:1, same amounts per well) | Percent Cytotoxicity ([2]; effector to target cell ratio 40:1, per well: complex 18.0 ug protein containing 3.6 ug MTP-PE, free MTP-PE 3.6 ug, acetyl-LDL 18.0 ug protein) | competition with uptake of DiI-labeled acetyl-LDL:MTP-PE complex [3] | % Cytostasis ([4]; acetyl-LDL 6.25 μg protein/ml (MTP-PE 0.62 μg/ml in complex, 0.0 alone), 24 hours) | % Cytostasis (Complex + Excess Liposomes) ([4]; acetyl-LDL 6.25 μg protein/ml (MTP-PE 0.62 or 0.0 μg/ml) in presence of excess liposomes 1.2 mg lipid/ml) | % Cytostasis ([4]; acetyl-LDL 12.5 μg protein/ml (MTP-PE 1.3 μg/ml in complex, 0.0 alone), 24 hours) | % Cytostasis (Complex + Excess Liposomes) ([4]; acetyl-LDL 12.5 μg protein/ml (MTP-PE 1.3 or 0.0 μg/ml) in presence of excess liposomes 1.2 mg lipid/ml) | % Cytostasis ([4]; acetyl-LDL 25 μg protein/ml (MTP-PE 2.5 μg/ml in complex, 0.0 alone), 24 hours) | % Cytostasis (Complex + Excess Liposomes) ([4]; acetyl-LDL 25 μg protein/ml (MTP-PE 2.5 or 0.0 μg/ml) in presence of excess liposomes 1.2 mg lipid/ml) | % Cytostasis ([4]; acetyl-LDL 50 μg protein/ml (MTP-PE 5.0 μg/ml in complex, 0.0 alone), 24 hours) | % Cytostasis (Complex + Excess Liposomes) ([4]; acetyl-LDL 50 μg protein/ml (MTP-PE 5.0 or 0.0 μg/ml) in presence of excess liposomes 1.2 mg lipid/ml) | % Cytostasis ([4]; acetyl-LDL 100 μg protein/ml (MTP-PE 9.9 μg/ml in complex, 0.0 for acetyl-LDL alone), macrophages treated 24 hours) | % Cytostasis (Complex + Excess Liposomes) ([4]; acetyl-LDL 100 μg protein/ml (MTP-PE 9.9 or 0.0 μg/ml) in presence of excess liposomes 1.2 mg lipid/ml) |
| --- | --- | --- | --- | --- | --- | --- | --- | --- | --- | --- | --- | --- | --- | --- | --- | --- | --- | --- |
| Acetyl-LDL: human plasma LDL exhaustively acetylated with acetic anhydride at apoprotein B lysine residues; the carrier alone | only low levels of binding | approximately twenty-fold greater | 0.5 ± 1% | 4.5 ± 4% | 4 ± 2% | 6 ± 2% | 3 ± 3% | effective competitive inhibitor | ≤ 5% | ≤ 5% | < 5% | ≤ 5% | 25 ± 12% | ≤ 5% | < 5% | ≤ 5% | < 5% | ≤ 5% |
| LDL: native unmodified human plasma low density lipoprotein |  |  |  |  |  |  |  | negligible to moderate competition |  |  |  |  |  |  |  |  |  |  |
